The source of these data is patent publication US20230113037A1 (Bayer Aktiengesellschaft, priority 2019, published 2023).

In general, IC50 refers to the concentration that inhibits the measured activity by half.

Structures are written as SMILES. Like-named read-outs stand apart in the source and are kept apart here.

Assay [1] has as its target T1, AHR (Mus musculus, UniProt P30561).
T1 sequence (P30561 1-848 P471L/N533S/M589L): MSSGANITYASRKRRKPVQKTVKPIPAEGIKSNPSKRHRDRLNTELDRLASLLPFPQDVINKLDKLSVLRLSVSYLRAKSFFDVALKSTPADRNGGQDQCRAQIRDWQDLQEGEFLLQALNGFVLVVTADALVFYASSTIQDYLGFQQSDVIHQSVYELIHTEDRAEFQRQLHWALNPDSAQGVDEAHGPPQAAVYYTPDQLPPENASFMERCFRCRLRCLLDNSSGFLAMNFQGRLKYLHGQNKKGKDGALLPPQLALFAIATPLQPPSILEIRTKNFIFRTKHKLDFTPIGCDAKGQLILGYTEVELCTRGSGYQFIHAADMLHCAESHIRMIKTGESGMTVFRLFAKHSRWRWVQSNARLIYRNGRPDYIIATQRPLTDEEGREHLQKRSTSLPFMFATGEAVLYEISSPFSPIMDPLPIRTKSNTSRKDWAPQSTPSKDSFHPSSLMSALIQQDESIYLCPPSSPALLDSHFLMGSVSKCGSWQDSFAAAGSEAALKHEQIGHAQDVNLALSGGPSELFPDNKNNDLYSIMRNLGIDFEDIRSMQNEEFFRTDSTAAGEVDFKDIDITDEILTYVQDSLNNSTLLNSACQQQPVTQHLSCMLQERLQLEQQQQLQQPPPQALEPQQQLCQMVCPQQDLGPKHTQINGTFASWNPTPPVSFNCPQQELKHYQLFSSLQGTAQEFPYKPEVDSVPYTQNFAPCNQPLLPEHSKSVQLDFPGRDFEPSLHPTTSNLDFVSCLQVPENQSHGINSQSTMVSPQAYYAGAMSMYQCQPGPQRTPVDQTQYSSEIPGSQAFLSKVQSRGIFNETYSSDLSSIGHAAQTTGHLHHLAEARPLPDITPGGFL
The assay can be described thus: In vitro assay 3: antagonism in mouse cell line (AHR transactivation, firefly luciferase reporter, kynurenic acid prestimulated). In kind it is cell-based. In outline: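 Cells were first stimulated with kynurenic acid, then exposed to test compound, after which firefly luciferase from a DRE-containing AHR reporter was read out. Signal was scaled between positive and negative controls. Cells not given kynurenic acid provided the inhibition reference.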

Assay [2] deals with T2, AHR (Homo sapiens, UniProt P35869).
T2 construct: U87 MG glioblastoma cells (ATCC #HTB-14) endogenously expressing AHR; endogenous in cells; host or cells: U87 MG glioblastoma cells (ATCC #HTB-14)
T2 sequence (P35869 11-848): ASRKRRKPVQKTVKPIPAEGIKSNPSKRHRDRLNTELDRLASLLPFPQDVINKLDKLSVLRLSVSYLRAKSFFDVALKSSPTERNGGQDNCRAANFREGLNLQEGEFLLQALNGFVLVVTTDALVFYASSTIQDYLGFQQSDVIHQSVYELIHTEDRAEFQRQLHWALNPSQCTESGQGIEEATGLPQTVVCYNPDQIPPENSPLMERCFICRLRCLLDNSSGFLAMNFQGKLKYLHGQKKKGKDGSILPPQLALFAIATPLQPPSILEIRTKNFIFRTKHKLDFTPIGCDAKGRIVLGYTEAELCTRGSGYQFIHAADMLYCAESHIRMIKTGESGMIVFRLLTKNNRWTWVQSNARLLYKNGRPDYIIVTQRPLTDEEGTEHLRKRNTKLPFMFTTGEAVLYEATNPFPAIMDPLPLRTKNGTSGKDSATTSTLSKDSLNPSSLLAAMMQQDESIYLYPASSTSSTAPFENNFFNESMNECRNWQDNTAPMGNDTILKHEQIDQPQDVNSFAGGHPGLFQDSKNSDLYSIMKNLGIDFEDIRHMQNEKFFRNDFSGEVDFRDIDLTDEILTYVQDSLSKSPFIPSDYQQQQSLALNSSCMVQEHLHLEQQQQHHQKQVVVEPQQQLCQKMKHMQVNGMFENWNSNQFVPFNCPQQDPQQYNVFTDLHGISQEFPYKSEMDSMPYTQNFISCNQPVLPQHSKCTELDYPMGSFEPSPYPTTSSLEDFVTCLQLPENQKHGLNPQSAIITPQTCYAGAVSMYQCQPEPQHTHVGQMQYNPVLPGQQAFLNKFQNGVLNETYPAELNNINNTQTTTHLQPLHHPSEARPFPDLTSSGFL
The assay can be described thus: In vitro assay 1: antagonism in human cell line (AHR transactivation, firefly luciferase reporter, kynurenic acid prestimulated). In kind it is cell-based. The note with it: AHR Antagonism Human IC50 [M]. Put shortly:
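U87 MG + DRE-firefly/constitutive-Renilla stable reporters; kynurenic acid prestim; dual-luc read; Renilla = tox; normalized vs pos/neg controls (pos: 150 μM KYNA + 5 μM staurosporine).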

Where [3] appears, read: mouse Hepa 1c1c7 cells, 200 μM kynurenic acid, 20 hours, read-out: AHR Antagonism Mouse IC50.
Setting [4] is: Hepa 1c1c7 cells, 200 μM kynurenic acid, 20 hours, firefly luciferase reporter, read-out: AHR Antagonism Mouse IC50.

For the compound `O=C1NCCNC[C@H]1Nc1nc2ccccc2c2nc(-c3ccco3)nn12` [Example 258, (6R)-6-{[2-(furan-2-yl)[1,2,4]triazolo[1,5-c]quinazolin-5-yl]amino}-1,4-diazepan-5-one], the IC50 at AHR [1] (setting [3]) stood at 398 nM; at AHR [2] it was 7.15e-07 M.

Consider `Cn1ccc(-c2nc3c4ccccc4nc(N[C@@H]4CNCCNC4=O)n3n2)n1` [Example 257, (6R)-6-{[2-(1-methyl-1H-pyrazol-3-yl)[1,2,4]triazolo[1,5-c]quinazolin-5-yl]amino}-1,4-diazepan-5-one], for which the IC50 at AHR [1] (setting [3]) was 12100 nM; at AHR [2], 6.29e-06 M.

Consider `CC[C@@H](Nc1nc2ccccc2c2nc(-c3ccc(OC)cc3)nn12)C(N)=O` [Example 379, (2R)-2-{[2-(4-methoxyphenyl)[1,2,4]triazolo[1,5-c]quinazolin-5-yl]amino}butanamide], for which the IC50 on AHR [1] (setting [3]) was 0.993 nM; at AHR [2], 7.6e-10 M.

In the case of `O=C1NCCNC[C@H]1Nc1nc2c(Br)cccc2c2nc(-c3cnn(C4CC4)c3)nn12` [Example 952, (6R)-6-{[7-bromo-2-(1-cyclopropyl-1H-pyrazol-4-yl)[1,2,4]triazolo[1,5-c]quinazolin-5-yl]amino}-1,4-diazepan-5-one], the IC50 on AHR [1] (read-out: AHR Antagonism Mouse IC50, Hepa 1c1c7 cells, 200 μM kynurenic acid, 20 hours, firefly luciferase reporter) amounted to 6.74 nM; at AHR [2] (firefly luciferase reporter), 3.97e-09 M.

With `CC(C)n1cc(-c2nc3c4cccc(C(F)(F)F)c4nc(N[C@@H]4CS(=O)(=O)CCNC4=O)n3n2)cn1` [Example 852, (6S)-6-({2-[1-(propan-2-yl)-1H-pyrazol-4-yl]-7-(trifluoromethyl)[1,2,4]triazolo[1,5-c]quinazolin-5-yl}amino)-1λ^6,4-thiazepane-1,1,5-trione], the IC50 at AHR [1] (setting [4]) came out at 66.2 nM; at AHR [2] (firefly luciferase reporter) it was 8.28e-09 M.

Turning to `CCCCNC(=O)[C@@H](C)Nc1nc2c(Br)cccc2c2nc(-c3cnn(C)c3)nn12` [Example 794, N^2-[7-bromo-2-(1-methyl-1H-pyrazol-4-yl)[1,2,4]triazolo[1,5-c]quinazolin-5-yl]-N-butyl-D-alaninamide], the results for the IC50 on AHR [1] (setting [4]) and on AHR [2] (firefly luciferase reporter) were 21.2 nM and 1.76e-08 M, respectively.

In the case of `COc1cccc(-c2nc3c4ccccc4nc(N[C@H](Cc4ccccc4)C(N)=O)n3n2)c1` [Example 90, N^2-[2-(3-methoxyphenyl)[1,2,4]triazolo[1,5-c]quinazolin-5-yl]-D-phenylalaninamide], the IC50 on AHR [1] (setting [3]) turned out to be 6.34 nM; on AHR [2], 4.54e-09 M.

Take `O=C1NCCNC[C@H]1Nc1nc2c(Cl)cccc2c2nc(-c3ccc(F)cc3)nn12` [Example 420, (6R)-6-{[7-chloro-2-(4-fluorophenyl)[1,2,4]triazolo[1,5-c]quinazolin-5-yl]amino]-1,4-diazepan-5-one]: the IC50 on AHR [1] (setting [3]) was 0.887 nM; against AHR [2], 9.36e-10 M.

Regarding `C[C@@H](Nc1nc2c(Br)cccc2c2nc(-c3cnn(C)c3)nn12)C(=O)N1C[C@@H]2C[C@H]1CO2` [Example 915, (2R)-2-{[7-bromo-2-(1-methyl-1H-pyrazol-4-yl)[1,2,4]triaozlo[1,5-c]quinazolin-5-yl]amino}-1-[(1S,4S)-2-oxa-5-azabicyclo[2.2.1]heptna-5-yl]propan-1-one], the concentration for half-maximal inhibition (IC50) on AHR [1] (setting [4]) was found to be 18.7 nM; at AHR [2] (firefly luciferase reporter), 1.74e-08 M.

With `CCNC(=O)C(CC)Nc1nc2ccccc2c2nc(-c3ccccc3OC(F)(F)F)nn12` (single isomer, unassigned) [Example 663, N-ethyl-2-({2-[2-(trifluoromethoxy)phenyl][1,2,4]triazolo[1,5-c]quinazolin-5-yl}amino)butanamide], the IC50 on AHR [1] (setting [3]) was 317 nM; on AHR [2], greater than 2e-05 M.

With `CCn1cc(-c2nc3c4cccc(C(F)(F)F)c4nc(N[C@@H]4CCCCNC4=O)n3n2)c(C)n1` [Example 674, (3R)-3-{[2-(1-ethyl-3-methyl-1H-pyrazol-4-yl)-7-(trifluoromethyl)[1,2,4]triazolo[1,5-c]quinazolin-5-yl]amino}azepan-2-one], the 50% inhibitory concentration (IC50) at AHR [1] (setting [3]) was determined as 0.669 nM; against AHR [2], 3.44e-10 M.

For `COc1cccc(-c2nc3c4ccccc4nc(N[C@H](C)C(=O)NC4CC4)n3n2)c1` [Example 106, N-cyclopropyl-N^2-[2-(3-methoxyphenyl)[1,2,4]triazolo[1,5-c]quinazolin-5-yl]-D-alaninamide], the IC50 at AHR [1] (setting [3]) was 4.91 nM; on AHR [2] it was 7.97e-09 M.

On to `CC[C@@H](Nc1nc2ccccc2c2nc(-c3ccccc3)nn12)C(N)=O` [Example 4, (2R)-2-[(2-phenyl[1,2,4]triazolo[1,5-c]quinazolin-5-yl)amino]butanamide], for which the values for the IC50 on AHR [1] (setting [3]) and on AHR [2] were 0.91 nM and 1.68e-09 M, respectively.

As for `CCCCNC(=O)[C@@H](CC)Nc1nc2c(Br)cccc2c2nc(-c3ccc(Cl)cc3OC(F)F)nn12` [Example 804, (2R)-2-({7-bromo-2-[4-chloro-2-(difluoromethoxy)phenyl][1,2,4]triazolo[1,5-c]quianzolin-5-yl}amino)-N-butylbutanamide], the values for the IC50 on AHR [1] (setting [4]) and against AHR [2] (firefly luciferase reporter) were 3 nM and 6.42e-09 M, respectively.

As to `Cn1cc(-c2nc3c4cccc(C(F)(F)F)c4nc(N[C@@H]4COCCNC4=O)n3n2)cn1` [Example 732, (6R)-6-{[2-(1-methyl-1H-pyrazol-4-yl)-7-(trifluoromethyl)[1,2,4]triazolo[1,5-c]quinazolin-5-yl]amino}-1,4-oxazepan-5-one], the IC50 at AHR [1] (setting [3]) was found to be 6.14 nM; against AHR [2] it was 1.32e-09 M.

Consider `CN1CC[C@@H](Nc2nc3ccccc3c3nc(-c4ccsc4)nn23)C1=O` [Example 345, (3R)-1-methyl-3-{[2-(thiophen-3-yl)[1,2,4]triazolo[1,5-c]quinazolin-5-yl]amino}pyrrolidin-2-one], for which the IC50 came out at 27 nM on AHR [1] (setting [3]) and 1.24e-07 M on AHR [2].

Take `CCCCNC(=O)CNc1nc2ccccc2c2nc(-c3cc(Cl)ccc3OC(F)(F)F)nn12` [Example 503, N-butyl-N^2-{2-[5-chloro-2-(trifluoromethoxy)phenyl][1,2,4]triazolo[1,5-c]quinazolin-5-yl}glycinamide]: the half-inhibitory concentration (IC50) at AHR [1] (setting [3]) is greater than 20000 nM; against AHR [2], greater than 2e-05 M.

Regarding `CN1CCC(n2cc(-c3nc4c5ccccc5nc(N[C@@H]5CCCCNC5=O)n4n3)cn2)CC1` [Example 596, (3R)-3-({2-[1-(1-methylpiperidin-4-yl)-1H-pyrazol-4-yl][1,2,4]triazolo[1,5-c]quinazolin-5-yl}amino)azepan-2-one], the results for the IC50 on AHR [1] (setting [3]) and against AHR [2] were 3140 nM and 4.08e-06 M, respectively.

As for `CCOC(=O)[C@@H](C)Nc1nc2c(C(F)(F)F)cccc2c2nc(-c3cnn(C)c3)nn12` [Example 864, ethyl N-[2-(1-methyl-1H-pyrazol-4-yl)-7-(trifluoromethyl)[1,2,4]triazolo[1,5-c]quinazolin-5-yl]-D-alaninate], the values for the IC50 on AHR [1] (setting [4]) and against AHR [2] (firefly luciferase reporter) were 378 nM and 2.57e-08 M, respectively.

For `N#Cc1ccc(-c2nc3c4ccccc4nc(N[C@@H]4CNCCNC4=O)n3n2)cc1` [Example 718, 4-(5-{[(6R)-5-oxo-1,4-diazepan-6-yl]amino}[1,2,4]triazolo[1,5-c]quinazolin-2-yl)benzonitrile], the values for the IC50 on AHR [1] (setting [3]) and on AHR [2] were 8.12 nM and 1.93e-08 M, respectively.
